SMILES strings stand for the structures. Marks after values point to notes of the source that are not given here. A value given as a limit tells only on which side of the number the result lay.

Here are results for 3 compounds from US10888092B2, “Ether amines for enhanced sporicidal performance” (Ecolab USA Inc., priority 2016, dated 2021).

In experiment [1] the test system is bacterial spores. As to the kind of experiment: Fabric swatches (ASTM E2274-09 protocol), simultaneous treatment (Example 5). The class given is cell-based. Conditions: TABLE 7, exposure 10 minutes. The procedure:
(§1) Various ether amines were tested for their efficiency in eradicating bacterial spores from fabric swatches. The fabric swatches were treated according to ASTM protocol for evaluating laundry sanitizers and disinfectants (ASTM E2274-09). The ASTM protocol provides more realistic conditions for laundering textiles, where the tested textiles are imbedded within a bundle of fabrics to mimic the ability of the composition to penetrate the fabric with less exposure to the wash solution.
Three different ether amine solutions were tested: DA-1214 (octyl/decyloxypropyl-1,3-diaminopropane), DA-1618 (dodecylketradecyloxypropyl-1,3-diaminopropane), and PA-14 (isodecyloxypropyl amine). Part I and Part II were both added together at the start of the experiment for a combined exposure time of 10 minutes. The solutions were made into deionized water as described in Example 1, with the pH adjusted to 9.0 by glycolic acid. However, PA-14 was already neutralized to pH 7 with sodium acetate. The log reduction of spores was measured in the wash solution and on the fabric swatch. The reduction of spores was compared to number of spores in the baseline treatment (water only).

Experiment [2] concerns spores. As to the kind of experiment: Fabric swatches (ASTM E2274), simultaneous treatment, hard water (Example 6). The class given is cell-based. Conditions: TABLE 8; 500 ppm synthetic hard water, pH 10.5 prior to peracid addition; ether amine 0 ppm, peracid 200 ppm; 10 minutes. The protocol: as §1
Treatment of fabric swatches was tested in pH-adjusted hard water. The wash solution contained 500 ppm synthetic hard water, and the pH was adjusted to 10.5 with NaOH prior to peracid addition. After the addition of the peracid, pH of the wash solution was between 7-8. DA-1214 was used as the ether amine and peracetic acid as the peracid.
The log reduction of spores was measured in the wash solution and on the fabric swatch. The reduction of spores was compared to number of spores in the baseline treatment (water only). The combined treatment time was 10 minutes.

Experiment [3] concerns spores. In words: Peracid comparison, ASTM test on fabric swatches (Example 7). Conditions: TABLE 9; peracid 200 ppm alone; 10 min at 50° C. The class given is cell-based. The procedure: as §1
The use of different peracids was tested. Fabric swatches were treated using the ASTM test described in Example 5. Part I was prepared with 100 ppm ether amine (DA-1618). Part II was prepared with 200 ppm of peroxyacetic acid (“POAA”) or peroxyoctanoic acid (“POOA”). When both Part I and Part II were used, the chemicals were added simultaneously. The exposure time was 10 min at 50° C.

Experiment [4] has as its system C. Diff. AATCC 43598. As to the kind of experiment: Glass surface, consecutive treatment (Example 2). The class given is cell-based, Clostridium difficile. Conditions: TABLE 4A, glass squares, ether amine 0 ppm 10 min. The procedure:
(§2) Cotton fabric swatches (5 mm×5 mm) were inoculated with C. Diff. AATCC 43598 at 35° C. for 48 hours. After inoculation, the swatches were treated with a first solution comprising part I of the composition at 50° C. for a first exposure time; removed from the first solution with sterile forceps and immediately transferred into a second solution comprising part II of the composition for a second exposure time. In comparative treatments, the solutions included only water. After treatment, the number of surviving spores was evaluated, and the log reduction of spores was compared to the comparative treatment (water only).
(§3) The treatment described above for Example 1 was applied to glass squares (5 mm×5 mm) in a first part of the experiment, where the first exposure time was 10 minutes (part I) and the second exposure time was 5 minutes (part II). In a second part of the experiment, the ether amine and peracid were mixed together prior to treatment, and the exposure time was 15 minutes. Results of the first part of the experiment are shown in TABLE 4A, and of the second part of the experiment in TABLE 4B.

In experiment [5] the test system is C. Diff. AATCC 43598. As to the kind of experiment: Fabric swatches, consecutive treatment, spore log reduction (Example 1). The class given is cell-based, Clostridium difficile. Conditions: ether amine 0 ppm 10 min, 50° C. The procedure: Aqueous solutions of ether amine (Part I) and peracid (Part II) were prepared. Ether amine (octyl/decyloxypropyl-1,3-diaminopropane) solution (Part I) was prepared in deionized water and the pH was adjust to 9.0 using glycolic acid. TOMAMINE DA1214 was used as the ether amine. TOMAMINE DA1214 contains about 50-60% by weight of 1,3-Propanediamine, N-[3-(octylocy)propyl] and about 35-40% by weight of 1,3-Propanediamine, N-[3-(decylocy)propyl], and is available from Air Products and Chemicals, Inc., in Allentown, Pa. Peracid (peracetic acid) solution (Part II) was prepared from TSUNAMI° 100 (15 peracetic acid), available from Ecolab Inc., in St Paul, Minn.
as §2
In Example 1, the first exposure time was 10 minutes (Part I) and the second exposure time was 5 minutes (Part II).

Experiment [6] has as its system C. Diff. AATCC 43598. In words: Glass surface, room temperature (Example 3). The class given is cell-based, Clostridium difficile. Conditions: TABLE 5, room temperature (approximately 23° C.), ether amine 0 ppm 10 min, peracid 1000 ppm 5 min. The procedure:
as §2, §3
The treatment described in Example 2 was repeated at room temperature (“RT,” approximately 23° C.). Part I was prepared with ether amine DA-1214 and Part II with peroxyacetic acid. The exposure times were 10 min for Part I and 5 min for Part II.

Experiment [7] relates to C. Diff. AATCC 43598. In words: Fabric swatches, consecutive vs. simultaneous treatment (Example 4). Conditions: TABLE 6, ether amine 0 ppm 10 min, peracid 300 ppm 5 minutes. The class given is cell-based, Clostridium difficile. The procedure: as §2
Consecutive and simultaneous treatment with low concentration (100 ppm) of ether amine and peracetic acid was tested on fabric squares. The fabric squares were treated as in Example 1 with treatment times of 10 min (part I) and 5 minutes (part II), except with the simultaneous treatment, where ether amine and peracid were mixed prior to treatment and the exposure time was 5 minutes.

[8] abbreviates: ether amine 100 ppm, peracid 0 ppm.
Where [9] appears, read: TABLE 3A, then peracid 300 ppm 5 min.
Where [10] appears, read: TABLE 3A, then peracid 500 ppm 5 min.
Where [11] appears, read: TABLE 3C, then peracid 300 ppm 5 min.
[12] abbreviates: ether amine 0 ppm, peracid 200 ppm.

On to `CC(C)CCCCCCCOCCCN` [PA-14, isodecyloxypropyl amine], for which, in experiment [1] (setting [8]), the “Fabric Swatch Log Reduction” value worked out at 0.07 and the “Wash Solution Log Reduction” value amounted to 0.17.
Consider `CC(=O)OO` [peracid, peracetic acid], for which the “Fabric Swatch Log Reduction” value worked out at 3.01 in experiment [2] and 2.65 in experiment [1] (setting [12]). For the same compound, the “Wash Solution Log Reduction” value in experiment [2] stood at 5.30; in experiment [3], 4.40; in experiment [1] (setting [12]), 5.33. Further, the Carrier log reduction in experiment [3] was 1.78. The “Average Log” value is on record as 5.30 in experiment [4] (then peracid 300 ppm 5 min); 3.38 in experiment [4] (then peracid 500 ppm 5 min); 5.36 in experiment [5] (setting [9]); 3.23 in experiment [5] (setting [10]); 5.04 in experiment [5] (setting [11]); above 5.48 in experiment [6]. Also, the “Average Survivors” value in experiment [4] (then peracid 300 ppm 5 min) is recorded as 2.0 × 10^5; in experiment [4] (then peracid 500 ppm 5 min), 2.4 × 10^3; in experiment [5] (setting [9]) it was 2.3 × 10^5; in experiment [5] (setting [10]) it was 1.7 × 10^3; in experiment [5] (setting [11]), 1.1 × 10^5; in experiment [6] it was >300 × 10^3. Also, the “Log Reduction” value in experiment [4] (then peracid 300 ppm 5 min) was 1.36; in experiment [4] (then peracid 500 ppm 5 min) it was 3.28; in experiment [5] (setting [9]), 1.02; in experiment [5] (setting [10]), 3.15; in experiment [5] (setting [11]), 0.69; in experiment [6], below 1.32. In experiment [7], the “Log Reduction” value is 0.85.
Regarding `CCCCCCCC(=O)OO` [POOA, peroxyoctanoic acid], in experiment [3], the Carrier log reduction was 5.35 and the “Wash Solution Log Reduction” value is reported as 6.00*.
